Experimental data as given in patent US12435061B2 (priority 2020, dated 2025).
Several values for one entry are separate records, joined by “and”; a condition that tells them apart may be missing. Equal values may be shown once. Where a name gives a salt, the structure may show the parent alone. Read-outs that look alike come from different tables or passages of the source.

Molecular target: hTRPV3 (Homo sapiens (Human), UniProt Q8NET8)
Experiment: Whole-cell patch clamp, hTRPV3 Phase 1 / Phase 2 currents
Assay type: cell-based
Procedure, shortened: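 Whole-cell recordings on induced TRPV3 cells replated on coverslips, held at −40 mV with 400 ms ramps from −120 to +100 mV every 5 s; currents read at −80 and +80 mV. Ringer's external solution; current activated by heating to ≥28 °C or 20 μM 2-APB.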

[1] = Phase 1 current, human TRPV3, read-out: hTRPV3 (nM) Phase 1
[2] = Phase 1 current, inward, whole-cell patch clamp, read-out: hTRPV3 Patch P1 Inwd
[3] = Phase 1 current, read-out: hTRPV3 (nM) (Phase 1)
[4] = Phase 2 current, inward, whole-cell patch clamp, read-out: hTRPV3 Patch P2 Inwd
[5] = Phase 2 current, read-out: hTRPV3 (nM) (Phase 2)

Sequence of hTRPV3 (Q8NET8 whole entry): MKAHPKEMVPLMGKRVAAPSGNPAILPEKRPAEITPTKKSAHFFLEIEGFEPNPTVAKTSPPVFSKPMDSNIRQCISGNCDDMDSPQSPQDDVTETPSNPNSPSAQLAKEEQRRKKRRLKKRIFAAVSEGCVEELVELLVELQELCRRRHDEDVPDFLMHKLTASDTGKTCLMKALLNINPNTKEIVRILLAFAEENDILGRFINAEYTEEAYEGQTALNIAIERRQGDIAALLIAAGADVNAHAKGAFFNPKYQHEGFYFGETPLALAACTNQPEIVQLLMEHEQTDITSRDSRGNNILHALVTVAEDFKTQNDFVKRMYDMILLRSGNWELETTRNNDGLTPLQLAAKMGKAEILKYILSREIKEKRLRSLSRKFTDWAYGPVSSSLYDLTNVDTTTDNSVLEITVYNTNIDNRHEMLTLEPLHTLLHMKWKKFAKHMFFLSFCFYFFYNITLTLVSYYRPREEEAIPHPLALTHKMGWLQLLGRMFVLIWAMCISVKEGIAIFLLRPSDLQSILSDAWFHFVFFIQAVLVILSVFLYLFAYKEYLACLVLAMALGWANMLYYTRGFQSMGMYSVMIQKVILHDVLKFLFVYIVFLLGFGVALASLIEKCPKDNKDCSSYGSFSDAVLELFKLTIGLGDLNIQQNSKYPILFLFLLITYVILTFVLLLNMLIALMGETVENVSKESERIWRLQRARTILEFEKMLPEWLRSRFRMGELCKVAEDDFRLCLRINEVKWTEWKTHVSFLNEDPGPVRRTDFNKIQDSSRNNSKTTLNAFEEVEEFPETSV

Compound | IC50 [2] [nM] | IC50 [3] | further results
CCc1c(Oc2ccc(F)c(CO)c2)ncnc1N1CC[C@H](Oc2ncccc2Cl)C1 [Compound 1-359, (S)-(5-(6-(3-(3-chloropyridin-2-yloxy)pyrrolidin-1-yl)-5-ethylpyrimidin-4-yloxy)-2-fluorophenyl)methanol] |  |  | hTRPV3 (nM) (Phase 1) (Phase 1 current): Agonist (Phase 1)
CC(C)c1ccccc1Oc1ccc(C2CCN(C(=O)c3ccccn3)C2)c(CO)c1 (stereo not shown) [Compound 2-13, (3-(2-(hydroxymethyl)-4-(2-isopropylphenoxy)phenyl)pyrrolidin-1-yl)(pyridin-2-yl)methanone] | 100 to 1000 |  | IC50 [1]: 193 nM
CCc1ccccc1-c1ccc(C2CCN(C(=O)c3cc(OC)ccn3)C2)c(CO)c1 (stereo not shown) [Compound 2-63, (3-(2′-ethyl-3-(hydroxymethyl)biphenyl-4-yl)pyrrolidin-1-yl)(4-methoxypyridin-2-yl)methanone] | 100 to 1000 |  | IC50 [1]: 235 nM
CC(C)NC(=O)c1ccccc1N1CC[C@H](Oc2ccc(C(F)(F)F)cn2)C1 [Compound 1-46, (S)—N-isopropyl-2-(3-(5-(trifluoromethyl)pyridin-2-yloxy)pyrrolidin-1-yl)benzamide] | > 1000 |  | 
Cc1cccc(CN2CCC(c3ccc(Oc4ccccc4C(C)C)cc3CO)C2)n1 (stereo not shown) [Compound 2-94, (5-(2-isopropylphenoxy)-2-(1-((6-methylpyridin-2-yl)methyl)pyrrolidin-3-yl)phenyl)methanol hydrochloride] | 100 to 1000 |  | IC50 [1]: 339 nM
COc1ccccc1Oc1ccc(N2CC[C@H](Oc3ccccn3)C2)c(CO)c1 [Compound 1-339, (S)-(5-(2-methoxyphenoxy)-2-(3-(pyridin-2-yloxy)pyrrolidin-1-yl)phenyl)methanol] | 100 to 1000 | 521 nM | 
O=C(c1ccccc1N1CC[C@H](Oc2ccc(C(F)(F)F)cn2)C1)N(Cc1ccccc1)Cc1ccccc1 [Compound 1-52, (S)—N,N-dibenzyl-2-(3-(5-(trifluoromethyl)pyridin-2-yloxy)pyrrolidin-1-yl)benzamide] | > 1000 |  | 
CC(C)(C)NS(=O)(=O)c1cc(-c2ccccc2)ccc1N1CCC(Oc2ccc(C(F)(F)F)cn2)C1 (stereo in doubt) [Compound 1-96, (S)—N-tert-butyl-4-(3-(5-(trifluoromethyl)pyridin-2-yloxy)pyrrolidin-1-yl)biphenyl-3-sulfonamide] | > 1000 | > 3200 nM | IC50 [4]: > 1000 nM; IC50 [5]: > 3200 nM
N#Cc1ccccc1-c1ccc(N2CC[C@H](Oc3ncccc3F)C2)c(CO)n1 [Compound 1-217, (S)-2-(5-(3-(3-fluoropyridin-2-yloxy)pyrrolidin-1-yl)-6-(hydroxymethyl)pyridin-2-yl)benzonitrile] | > 1000 | 3900 nM | 
CCc1ccccc1-c1ccc(N2CC[C@H](Oc3ccc(F)cn3)C2)c(CO)n1 [Compound 1-208] | > 1000 |  | IC50 [4]: 100 to 1000 nM
COC(C)c1ccccc1Oc1ccc(N2CC[C@H](Oc3ccccn3)C2)c(CCO)c1 (stereo partly drawn) [Compound 1-357, 2-(5-(2-(1-methoxyethyl)phenoxy)-2-((S)-3(pyridin-2-yloxy)pyrrolidin-1-yl)phenyl)ethanol] | 100 to 1000 | 312 nM | 
OCc1cc(-c2ccccc2)ccc1N1CC[C@H](Oc2ccc(Cl)cn2)C1 [Compound 1-147, (S)-(4-(3-(5-chloropyridin-2-yloxy)pyrrolidin-1-yl)biphenyl-3-yl)methanol] | 100 to 1000 | 171 nM | 
Cc1ccc(O[C@H]2CCN(c3ccc(-c4ccccc4C)nc3CO)C2)nc1 [Compound 1-189, (S)-(3-(3-(5-methylpyridin-2-yloxy)pyrrolidin-1-yl)-6-o-tolylpyridin-2-yl)methanol] | 100 to 1000 | 636 nM | IC50 [4]: > 1000 nM; IC50 [5]: 1120 nM
NC(=O)c1cc(-c2ccccc2)ccc1N1CC[C@H](Nc2ccc(C(F)(F)F)cn2)C1 (stereo in doubt) [Compound 1-375] |  | > 1000 nM and ~5500 nM | IC50 [5]: > 1000 nM and ~2850 nM
CC(C)Oc1cc(-c2ccccc2)ccc1N1CC[C@H](Oc2ccc(C(F)(F)F)cn2)C1 [Compound 1-77, (S)-2-(1-(3-isopropoxybiphenyl-4-yl)pyrrolidin-3-yloxy)-5-(trifluoromethyl)pyridine] | > 1000 | > 3200 nM | IC50 [4]: > 1000 nM; IC50 [5]: 1470 nM
N#Cc1ccccc1N1CC[C@@H](Oc2ccc(C(F)(F)F)cn2)C1 [Compound 1-9, (R)-2-(3-(5-(trifluoromethyl)pyridin-2-yloxy)pyrrolidin-1-yl)benzonitrile] | > 1000 |  | 
Cc1cccnc1O[C@H]1CCN(c2ccc(-c3ccccc3)cc2CCO)C1 [Compound 1-193, (S)-2-(4-(3-(3-methylpyridin-2-yloxy)pyrrolidin-1-yl)biphenyl-3-yl)ethanol] | 100 to 1000 | 260 nM | 
CCc1cncnc1Oc1ccc(C2CCN(C(=O)c3ccc(F)cn3)C2)c(CO)c1 (stereo not shown) [Compound 2-24, (3-(4-(5-ethylpyrimidin-4-yloxy)-2-(hydroxymethyl)phenyl)pyrrolidin-1-yl)(5-fluoropyridin-2-yl)methanone] | > 1000 |  | IC50 [1]: > 3200 nM
O=C(c1ccc(Cl)cc1)c1ccc(N2CC[C@H](Oc3ncccc3Cl)C2)c(CO)c1 [Compound 1-288, (S)-(4-chlorophenyl)(4-(3-(3-chloropyridin-2-yloxy)pyrrolidin-1-yl)-3-(hydroxymethyl)phenyl)methanone] | 10 to 100 |  | 

Compound | IC50 [2] [nM] | IC50 [3] | further results
CCc1ccccc1-c1ccc(N2CC[C@H](Oc3ccc(C(F)(F)F)cn3)C2)c(CO)c1 [Compound 1-149, (S)-(2′-ethyl-4-(3-(5-(trifluoromethyl)pyridin-2-yloxy)pyrrolidin-1-yl)biphenyl-3-yl)methanol] | 10 to 100 | 34.7 nM | IC50 [4]: < 10 nM; IC50 [5]: 10.7 nM
CC(C)c1ccccc1Oc1ccc(C2CCN(C(=O)c3ncccc3F)C2)c(C(N)=O)c1 (stereo not shown) [Compound 2-46, 2-(1-(3-fluoropicolinoyl)pyrrolidin-3-yl)-5-(2-isopropylphenoxy)benzamide] | > 1000 |  | IC50 [1]: ~2250 nM
N#Cc1ccc(N2CC[C@H](Oc3ccc(C(F)(F)F)cn3)C2)c(C(N)=O)c1 [Compound 1-23, (S)-5-cyano-2-(3-(5-(trifluoromethyl)pyridin-2-yloxy)pyrrolidin-1-yl)benzamide] | > 1000 |  | 
OCc1csc(-c2cccc(N3CC[C@H](Oc4ccc(C(F)(F)F)cn4)C3)c2)n1 [Compound 1-177] | > 1000 |  | 
Oc1cc(-c2ccccc2)ccc1N1CC[C@@H](Oc2ccc(C(F)(F)F)cn2)C1 [Compound 1-89, (R)-4-(3-(5-(trifluoromethyl)pyridin-2-yloxy)pyrrolidin-1-yl)biphenyl-3-ol] | > 1000 | > 3200 nM | IC50 [4]: > 1000 nM; IC50 [5]: > 3200 nM
CC(C)c1ccccc1Oc1ccc(C2CC(=O)N(Cc3ccccn3)C2)c(C(N)=O)c1 (stereo not shown) [Compound 2-99, 5-(2-isopropylphenoxy)-2-(5-oxo-1-(pyridin-2-ylmethyl)pyrrolidin-3-yl)benzamide] | > 1000 |  | IC50 [1]: > 3200 nM
O=C(c1csc(Cl)n1)N1CCC(c2ccc(-c3ccccc3C3CC3)cc2CO)C1 (stereo not shown) [Compound 2-124] |  |  | IC50 [1]: 20.7 nM
N#Cc1ccccc1N1CCC(Oc2ccc3ccccc3n2)C1=O (stereo not shown) [Compound 1-103, 2-(2-oxo-3-(quinolin-2-yloxy)pyrrolidin-1-yl)benzonitrile] | > 1000 | > 3200 nM | 
COc1ccccc1-c1ccc(N2CC[C@H](Oc3ccc(C)cn3)C2)c(CO)n1 [Compound 1-191, (S)-(6-(2-methoxyphenyl)-3-(3-(5-methylpyridin-2-yloxy)pyrrolidin-1-yl)pyridin-2-yl)methanol] | > 1000 | > 3200 nM | 
OCc1cc(Oc2cccc(OC(F)(F)F)c2)ccc1N1CC[C@H](Oc2ccccn2)C1 [Compound 1-307] | 10 to 100 | ~59.5 nM | 
Cc1cccnc1O[C@H]1CCN(c2ccc(-c3ccccc3)cc2C(C)O)C1 (stereo partly drawn) [Compound 1-169, 1-(4-((S)-3-(3-methylpyridin-2-yloxy)pyrrolidin-1-yl)biphenyl-3-yl)ethanol] | 100 to 1000 | 476 nM | IC50 [4]: 100 to 1000 nM; IC50 [5]: 655 nM
NC(=O)c1cc(-c2cccnc2)ccc1N1CC[C@@H](Oc2ccccn2)C1 [Compound 1-87, hydrochloride] | > 1000 |  | 
NCc1ccc(N2CC[C@H](Oc3ccc(C(F)(F)F)cn3)C2)c(C(N)=O)c1 [Compound 1-35] | > 1000 |  | 
CCc1ccccc1Oc1ccc(N2CC[C@H](Oc3ncccc3Cl)C2)c(C(N)=O)c1 [Compound 1-324] |  |  | hTRPV3 (nM) (Phase 1) (Phase 1 current): Incomplete Block (Phase 1)
NC(=O)c1cc(-c2ccccc2)ncc1N1CC[C@@H](Oc2ccc(C(F)(F)F)cn2)C1 [Compound 1-99, (R)-2-phenyl-5-(3-(5-(trifluoromethyl)pyridin-2-yloxy)pyrrolidin-1-yl)isonicotinamide] | 100 to 1000 | ~787 nM | IC50 [4]: 100 to 1000 nM; IC50 [5]: 349 nM
O=C(c1ncccc1Cl)N1CCC(c2ccc(C(O)c3ccccc3Cl)cc2CO)C1 (stereo not shown) [Compound 2-11, (3-(4-((2-chlorophenyl)(hydroxy)methyl)-2-(hydroxymethyl)phenyl)pyrrolidin-1-yl)(3-chloropyridin-2-yl)methanone] | > 1000 |  | IC50 [1]: > 3200 nM
OCc1cc(Oc2ccc(Cl)c(C(F)(F)F)c2)ccc1N1CC[C@H](Oc2ccccn2)C1 [Compound 1-303] | 10 to 100 | 56.3 nM | 
O=C(c1ccc(Cl)cn1)N1CCC(c2ccc(-c3ccccc3)nc2CO)C1 (stereo not shown) [Compound 2-82] | 100 to 1000 |  | IC50 [1]: 836 nM
CC(C)c1ccccc1Oc1ccc(N2CC[C@H](Oc3ncccc3Cl)C2)c(CO)c1 [Compound 1-271, (S)-(2-(3-(3-chloropyridin-2-yloxy)pyrrolidin-1-yl)-5-(2-isopropylphenoxy)phenyl)methanol] | < 10 | 2.01 nM | 
